Assay results as given in patent publication US11964988B2, “Fused heterocyclic compounds as RET kinase inhibitors” (ARRAY BIOPHARMA INC., priority 2018, dated 2024).
Positions count from the first letter of the chain named.

Tests used:
RET kinase V804M = RET kinase V804M (Homo sapiens, UniProt P07949, V804M); assay: RET Enzyme Assay (CisBio HTRF KinEASE-TK), V804M; assay type: biochemical; conditions: read-out: RET V804M Enz FRET IC50
[1] = biological target: T1, HEK-293 cells expressing a G810R mutant RET Kif5b-RET fusion protein (Homo sapiens, UniProt P07949, G810R); assay: RET G810R Mutant Cell Assay (phospho-RET Tyr1062); assay type: cell-based; conditions: HEK-293 Kif5b-RET G810R, 1 hour incubation, phospho-RET normalized to GAPDH
T1 construct: KIF5B (N-terminal portion incl. coiled-coil); expressed in transfected cells; host or cells: HEK-293; the other entry of the earlier key: KIF5B (P33176, Kinesin-1 heavy chain)
T1 sequence (P07949 713-1063 G810R limits assumed): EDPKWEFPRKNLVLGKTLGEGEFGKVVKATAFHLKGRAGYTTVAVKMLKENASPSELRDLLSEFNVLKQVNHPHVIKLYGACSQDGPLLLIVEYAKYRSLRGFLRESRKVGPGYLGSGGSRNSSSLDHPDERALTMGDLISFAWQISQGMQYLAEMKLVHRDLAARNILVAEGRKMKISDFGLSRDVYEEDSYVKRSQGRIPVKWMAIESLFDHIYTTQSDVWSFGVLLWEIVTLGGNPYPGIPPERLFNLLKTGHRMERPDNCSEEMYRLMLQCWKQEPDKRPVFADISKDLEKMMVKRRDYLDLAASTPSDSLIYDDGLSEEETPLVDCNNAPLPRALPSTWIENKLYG
Method: (§1) The cellular potency of compounds inhibiting RET kinase were determined in HEK-293 cells expressing a G810R or G810S mutant RET Kif5b-RET fusion protein. Briefly, HEK-293 cells expressing a G810R or G810S mutant RET Kif5b-RET fusion protein were plated at 50K cells/well in 96 well poly-D-Lysine coated plates the day prior to the assay. The cells were incubated for 1 hour with test compound in DMEM (Dulbecco's Modified Eagle Medium) at a final DMSO concentration of 0.5%. […] After 1 hour the media was removed, the cells were fixed with 3.8% formaldehyde for 20 min, washed with PBS, and permeabilized for 10 min with 100% methanol. The plates were then washed with PBS-0.05% Tween20, and blocked with LI-COR Blocking solution (LI-COR Catalog No. 927-40000) for 1 hour. Plates were washed with PBS-0.05% Tween20, then incubated with anti-phospho-RET (Tyr1062) (Santa Cruz Catalog No. sc-20252-R) antibody and anti-GAPDH (Millipore Catalog No. MAB374) antibody for 2 hours. The plates were washed with PBS-0.05% Tween20, and incubated with anti-rabbit 680 (Molecular Probes Catalog No. A21109) and anti-mouse 800 (LI-COR Catalog No. 926-32210) secondary antibodies for 1 hour. All antibodies were diluted in LI-COR Block containing 0.05% Tween. The plates were washed with PBS-0.05% Tween20,100 μL PBS was added to each well, and the plates were read on a LI-COR Aerius fluorescent plate reader. The phospho-RET signal was normalized to the GAPDH signal. […] The POC values are fit to a 4 parameter logistic curve. The IC50 value is the point where the curve crosses 50 POC.

[2] = biological target: T2, HEK-293 cells expressing a G810S mutant RET Kif5b-RET fusion protein (Homo sapiens, UniProt P07949, G810S); assay: RET G810S Mutant Cell Assay (phospho-RET Tyr1062); assay type: cell-based; conditions: HEK-293 Kif5b-RET G810S, 1 hour incubation, phospho-RET normalized to GAPDH
T2 construct: KIF5B (N-terminal portion incl. coiled-coil); expressed in transfected cells; host or cells: HEK-293
T2 sequence (P07949 713-1063 G810S limits assumed): T1 sequence (P07949 713-1063 G810R limits assumed) with R98S
Method: as §1

RET kinase Wild Type = RET kinase Wild Type (Homo sapiens, UniProt P07949); assay: biochemical;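 also: HTRF kinase activity assay on RET enzyme, 1 h reaction at 22 °C, dual-wavelength readout as percent of control, DMSO-only wells as 100%, pre-quenched reactions as 0%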
G810R mutant RET kinase = G810R mutant RET kinase (Homo sapiens, UniProt P07949, G810R); assay: biochemical;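 also: HTRF KinEASE-TK enzymatic assay with 1 nM recombinant RET G810R, 1 h at 22 °C, dual-wavelength ratiometric readout, 100% control without compound, 0% from pre-quenched reactions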
G810S mutant RET kinase = G810S mutant RET kinase (Homo sapiens, UniProt P07949, G810S); assay: biochemical;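 also: HTRF KinEASE-TK kinase assay with recombinant enzyme, 1 h at 22 °C, dual-wavelength ratiometric read-out, percent of control (DMSO-only = 100, pre-quenched reaction = 0)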
[3] = biological target: T3, HEK-293 cells expressing a Kif5b-RET fusion protein (Homo sapiens, UniProt P07949); assay: RET Cell Assay (phospho-RET Tyr1062); assay type: cell-based; conditions: HEK-293 Kif5b-RET, 1 hour incubation, phospho-RET normalized to GAPDH; read-out: KIF5B-RET pTYR1062 Cell IC50
T3 construct: KIF5B (N-terminal portion incl. coiled-coil); expressed in transfected cells; host or cells: HEK-293; the other entry of the earlier key: KIF5B (P33176, Kinesin-1 heavy chain)
T3 sequence (P07949 713-1063 limits assumed): T1 sequence (P07949 713-1063 G810R limits assumed) with R98G
In short: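 Phospho-RET (Tyr1062) to GAPDH ratio read by in-cell fluorescent immunodetection after 1 hour compound exposure in DMEM, 0.5% DMSO. Cells: HEK-293 carrying Kif5b-RET fusion. POC data fit to a 4-parameter logistic curve, IC50 taken at 50 POC.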

Sequence of RET kinase Wild Type (P07949 29-1114): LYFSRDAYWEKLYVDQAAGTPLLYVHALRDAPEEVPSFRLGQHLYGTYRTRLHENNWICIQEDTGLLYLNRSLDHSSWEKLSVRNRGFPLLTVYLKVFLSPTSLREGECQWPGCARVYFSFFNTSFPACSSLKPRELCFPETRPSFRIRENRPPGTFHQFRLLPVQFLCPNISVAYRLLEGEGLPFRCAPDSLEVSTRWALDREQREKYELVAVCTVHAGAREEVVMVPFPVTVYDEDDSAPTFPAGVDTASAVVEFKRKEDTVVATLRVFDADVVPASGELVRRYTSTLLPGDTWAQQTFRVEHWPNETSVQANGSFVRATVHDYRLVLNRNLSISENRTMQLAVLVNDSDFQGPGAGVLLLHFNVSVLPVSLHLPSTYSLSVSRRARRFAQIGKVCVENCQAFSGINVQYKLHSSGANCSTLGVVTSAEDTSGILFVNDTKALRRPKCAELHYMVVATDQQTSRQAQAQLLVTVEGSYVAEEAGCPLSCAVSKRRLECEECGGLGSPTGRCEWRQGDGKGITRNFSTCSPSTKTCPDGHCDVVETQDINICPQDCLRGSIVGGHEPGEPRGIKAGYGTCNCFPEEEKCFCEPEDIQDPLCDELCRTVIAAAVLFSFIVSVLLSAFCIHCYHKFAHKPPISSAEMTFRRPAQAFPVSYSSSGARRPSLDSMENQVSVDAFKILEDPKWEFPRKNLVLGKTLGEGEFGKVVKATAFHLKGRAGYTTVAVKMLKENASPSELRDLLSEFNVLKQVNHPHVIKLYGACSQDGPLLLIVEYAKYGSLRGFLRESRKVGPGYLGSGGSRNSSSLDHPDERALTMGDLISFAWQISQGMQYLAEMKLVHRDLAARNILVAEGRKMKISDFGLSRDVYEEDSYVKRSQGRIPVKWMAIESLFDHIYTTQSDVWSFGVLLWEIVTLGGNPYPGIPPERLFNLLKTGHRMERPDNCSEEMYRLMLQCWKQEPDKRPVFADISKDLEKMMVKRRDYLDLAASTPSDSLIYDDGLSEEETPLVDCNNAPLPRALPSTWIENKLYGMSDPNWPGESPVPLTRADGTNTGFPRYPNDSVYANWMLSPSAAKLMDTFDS
Sequence of G810R mutant RET kinase (P07949 29-1114 G810R): as the sequence (P07949 29-1114) above, with G782R counted along it
Sequence of G810S mutant RET kinase (P07949 29-1114 G810S): as the sequence (P07949 29-1114) above, with G782S counted along it
Sequence of RET kinase V804M (P07949 29-1114 V804M): as the sequence (P07949 29-1114) above, with V776M counted along it

IC50 (RET kinase V804M) [nM]	IC50 [1] [nM]	IC50 [2] [nM]	IC50 (RET kinase Wild Type) [nM]	IC50 (G810R mutant RET kinase) [nM]	IC50 (G810S mutant RET kinase) [nM]	IC50 [3] [nM]	Structure (SMILES)
2030	170	191	82	421	51		COC(=O)c1ccc2c(Cl)c3n(c2c1)C(=O)NCc1c-3c2c(N)ncnc2n1C(C)C [Example 75, Methyl 1-amino-14-chloro-5-isopropyl-8-oxo-5,6,7,8-tetrahydropyrimido[5″,4″:4′,5′]pyrrolo[2′,3′:5,6][1,3]diazepino[1,7-a]indole-11-carboxylate]
	845	570	117	118	292	143	CC(C)n1c2c(c3c(N)ncnc31)-c1cc3ccc(C#N)cc3n1C(=O)NC2 [Example 76, 1-amino-5-isopropyl-8-oxo-5,6,7,8-tetrahydropyrimido[5″,4″:4′,5′]pyrrolo[2′,3′:5,6][1,3]diazepino[1,7-a]indole-11-carbonitrile]
1740	537	201	411	214	284		Nc1ncnc2c1c1c(n2-c2ccccc2)CNC(=O)c2c-1noc2C1CC1 [Example 110, 11-amino-3-cyclopropyl-7-phenyl-6,7-dihydroisoxazolo[4,3-c]pyrimido[5′,4′:4,5]pyrrolo[3,2-e]azepin-4(5H)-one 2,2,2-trifluoroacetate]
	89	32	27	135	73	13	CC(C)n1c2c(c3c(N)ncnc31)-c1cc3cc(Cl)ccc3n1C(=O)NC2 [Example 77, 1-amino-12-chloro-5-isopropyl-6,7-dihydropyrimido[5″,4″:4′,5′]pyrrolo[2′,3′: 5,6][1,3]diazepino[1,7-a]indol-8(5H)-one]
	1060	812	63	58	97	293	CC(C)n1c2c(c3c(N)ncnc31)-c1cc3c(F)cccc3n1C(=O)NC2 [Example 83, 1-amino-13-fluoro-5-isopropyl-6,7-dihydropyrimido[5″,4″:4′,5′]pyrrolo[2′,3′: 5,6][1,3]diazepino[1,7-a]indol-8(5H)-one]
	49	36	75	1030	474	16	CC(=O)Nc1ccc2cc3n(c2c1)CCCc1c-3c2c(N)ncnc2n1C(C)C [Example 139, N-(1-amino-5-isopropyl-5,6,7,8-tetrahydropyrimido[5″,4″:4′,5′]pyrrolo[3′,2′:3,4]azepino[1,2-a]indol-11-yl)acetamide]
	607	388	92	183	312	166	COC(=O)c1ccc2cc3n(c2c1)C(=O)NCc1c-3c2c(N)ncnc2n1C(C)C [Example 70, Methyl 1-amino-5-isopropyl-8-oxo-5,6,7,8-tetrahydropyrimido[5″,4″:4′,5′]pyrrolo[2′,3′:5,6][1,3]diazepino[1,7-a]indole-11-carboxylate]
	142	116	27	187	393	85	COCCn1ccc(NC(=O)c2ccc3cc4n(c3c2)CCCc2c-4c3c(N)ncnc3n2C(C)C)n1 [Example 96, 1-amino-5-isopropyl-N-(1-(2-methoxyethyl)-1H-pyrazol-3-yl)-5,6,7,8-tetrahydropyrimido[5″,4″:4′,5′]pyrrolo[3′,2′: 3,4]azepino[1,2-a]indole-11-carboxamide]
6000	2940	918	353	2080	289		CNC(=O)c1ccc2c(Cl)c3n(c2c1)C(=O)NCc1c-3c2c(N)ncnc2n1C(C)C [Example 74, 1-Amino-14-chloro-5-isopropyl-N-methyl-8-oxo-5,6,7,8-tetrahydropyrimido[5″,4″:4′,5′]pyrrolo[2′,3′:5,6][1,3]diazepino[1,7-a]indole-11-carboxamide]
